We go through 1 compound from US12083109B2, “Neurokinin antagonists and uses thereof” (California Institute of Technology, priority 2017, dated 2024).

“Also recorded” adds a separate entry of the source.

The target in this experiment is T1, hM4DREADD in Tac2+ neurons (Homo sapiens, UniProt P08173, A203G/Y113C).
T1 construct: host or cells: Tac2+ neurons of Tac2-Cre mice (dBNSTa, DMH or CeA), transduced in vivo with AAV2-EF1a-DIO-hM4D-mCherry
T1 sequence (P08173 1-479 Y113C/A203G): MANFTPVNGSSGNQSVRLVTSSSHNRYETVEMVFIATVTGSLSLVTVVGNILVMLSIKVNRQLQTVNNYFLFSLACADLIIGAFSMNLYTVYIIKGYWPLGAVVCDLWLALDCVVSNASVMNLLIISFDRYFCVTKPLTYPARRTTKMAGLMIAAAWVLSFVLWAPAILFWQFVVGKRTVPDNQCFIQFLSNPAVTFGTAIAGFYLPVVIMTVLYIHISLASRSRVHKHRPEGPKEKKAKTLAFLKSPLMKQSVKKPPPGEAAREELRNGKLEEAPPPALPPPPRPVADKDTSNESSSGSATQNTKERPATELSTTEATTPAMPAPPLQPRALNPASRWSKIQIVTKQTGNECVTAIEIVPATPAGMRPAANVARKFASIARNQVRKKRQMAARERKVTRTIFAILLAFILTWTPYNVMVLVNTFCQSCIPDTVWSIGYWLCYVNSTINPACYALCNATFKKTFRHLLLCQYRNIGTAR
Nature of the experiment: Looming disk assay, CNO silencing of Tac2+ neurons (hM4DREADD). It is filed as in vivo, mouse. As to conditions: SIS Tac2-Cre mice, CNO 5 mg/kg i.p. Here is the method: Freezing behavior to presentation of an overhead looming disk proceeded as previously described (Kunwar et al., 2015; Yilmaz and Meister, 2013; incorporated by reference in their entirety). Briefly, mice were transported to a novel behavioral testing room. After 5 minutes of acclimation, mice were placed inside a novel, custom-built open top Plexiglas arena (48×48×30 cm) covered with a flat screen monitor placed directly above and with illumination provided by infrared LEDs (Marubeni). Mice were given a 5 minute baseline period in the arena, after which entry into the center of the arena triggered presentation of a single, 10 second overhead looming disk stimulus (comprised of a single looming disk presentation 0.5 seconds in duration, which was repeated 10 times with an inter-stimulus interval of 0.5 seconds). The stimulus was controlled by custom MATLAB code (M. Meister, Caltech) run on a dedicated computer in an adjacent room. Mice remained in the area for an additional 2 minutes before being transported back. Behavior was recorded using a video recorder attached to a laptop equipped with video capture software (Corel VideoStudio Pro). Acute freezing behavior to the looming disk (“during”) as well as in the 30 seconds following the last disk (“post”) were scored manually (Behavior Annotator, MATLAB) by an observer blind to environmental conditions. […]

Regarding `C[N+]1([O-])CCN(C2=Nc3cc(Cl)ccc3Nc3ccccc32)CC1` [CNO, clozapine-N-oxide], the “acute (during) freezing to looming disk” value (hM4DREADD in CeA) is listed as “blocked; also recorded: suppressed”. The “persistent (post) freezing to looming disk” value (hM4DREADD in dBNSTa) is on record as “blocked; also recorded: selectively attenuated”.
